Values of other authors as cited in US12653912B2 (SHENZHEN CHINA RESOURCES JIUCHUANG MEDICAL AND …, priority 2020, dated 2026).

Conditions: 75 mg/m^2, intravenous bolus injecting

O=C1c2c(O)ccc(O)c2C(=O)c2c(NCCNCCO)ccc(NCCNCCO)c21 [mitoxantrone]
AUC at the maximum tolerated total dosage: 560 to 1700 ng·h/mL
